{
  "source": "patent US11325937B2",
  "about": "“Glycoside compound and preparation method therefor, composition, application, and intermediate” (SHANGHAI HUTCHISON PHARMACEUTICALS LIMITED, priority 2018, dated 2022)",
  "key": {"[1]": {"system": "rats with permanent ligation of bilateral common carotid arteries (2VO)", "assay": "Chronic cerebral ischemia model in rats with permanent ligation of bilateral common carotid arteries (2VO)", "type": "in vivo", "description": "After obtaining the active molecules that can promote the expression of VEGF-A mRNA in the animal model of inflammatory angiogenesis, a rat model of cerebral infarction was used for further verification. Following the method as described in Longa, E. Z., Longa, E. Z., Weinstein, P. R., Carlson, S. & Commin, R. Reversible middle cerebral artery occlusion without craniectomy in rats. [J]. Stroke, 1989. 1: 84-91, an acute cerebral infarction model was established in rats with middle cerebral artery occlusion (MCAO); and following the method as described in C. dela Torre, T. Fortin, G. A. S. Park, K. S. Butler, P. Kozlowski, B. A. Pappas, H. de Socarraz, J. K. Saunders and M. T. Richard. [J]. Brain Research, 1992. 582:186-195, a chronic cerebral ischemia model was established in rats with permanent ligation of bilateral common carotid arteries (2VO). The inhibition on cerebral infarction and neuroprotection for brain injury of the active molecules screened in Effect Example 2 were verified.\nIn the later period of the present invention, a chronic cerebral ischemia model was established in rats with permanent ligation of bilateral common carotid arteries (2VO). TG-028 (5 mg/kg) was administered to 5 rats in each group daily by intraperitoneal injection for 3 weeks. The effects of TG-028 and the control drug Edaravone (40 mg/kg) in the rat model of chronic cerebral ischemia were observed.\n3 weeks after the establishment of the rat model of 2VO chronic cerebral ischemia, the Morris water maze experiment was performed on the test rats to determine the effects of drugs on animal learning and memory. The test rats were subjected to ambient positioning and memory training for 5 days. On Day 5 of the training, a positioning navigation experiment was carried out, and the duration for each group of rats from the time of entering the water from different water entry points facing the pool wall to the time of finding the platform, that is, the escape incubation period, was recorded. On Day 6, the platform was removed and a space exploration experiment was carried out. The swimming time of the rats in the target quadrant, the dwell time in the target quadrant, the distance in the target quadrant, and the number of passes through the platform were recorded in 120 s from the time of entering water from a quadrant opposing the target quadrant. The results of the water maze positioning and navigation experiment are shown in FIG. 8 (where Sham is a sham operation group).\nAfter permanent ligation of the bilateral common carotid arteries, a 5-day positioning training was carried out, and […] Morris water maze space exploration experiment was performed after the training."}, "[2]": {"assay": "Acute toxicity test of TG-028", "type": "in vivo", "experimental": "In addition, an acute toxicity test of TG-028 was conducted."}, "[3]": {"system": "HUVEC-12 endothelial cells", "assay": "Proliferation of HUVEC-12 endothelial cells (MTT)", "type": "cell-based, Human", "conditions": "HUVEC-12 treated with supernatant of macrophages co-incubated 24 h with compound, 10 μM (s- groups)", "experimental": "The experiment included seven groups. In Group 1, HUVEC-12 endothelial cells (purchased from Shanghai RongChuang Biotech Co., Ltd.) were treated directly with simple DMEM medium (Gibcol, Shanghai) containing 10% FBS ([…], Germany) (control). In Group 2, the endothelial cells were treated with the supernatant obtained 24 h after macrophages were cultured with DMEM medium containing 10% FBS (s-control). […] In Group 5, the endothelial cells cultured with DMEM medium containing 10% FBS were treated directly with Cpd-18 (Salvianolate) (cpd-18, 10 μM). In Group 6, the endothelial cells were treated with the supernatant obtained after macrophages cultured with DMEM medium containing 10% FBS were treated and co-incubated with Cpd-18 (Salvianolate, 10 μM) for 24 h (s-cpd18). In Group 7, the endothelial cells cultured with DMEM medium containing 10% FBS were treated directly with VEGFD (Recombinant Human VEGF165, 10 ng/mL). Human umbilical vein endothelial cells HUVEC-12 in logarithmic growth phase were counted, adjusted to a cell density of 2.5×10^4 cells/mL, and inoculated in 100 μL per well in a 96-well plate. […] Based on the measured absorbance (OD), the HUVEC-12 endothelial cells treated directly with simple DMEM medium (control) were used as a blank control (Group 1), the percentage of cell proliferation in each group was calculated, and compared. […]"}},
  "data": [
    {"smiles": "COc1ccc(CCCCO[C@@H]2O[C@H](CO)[C@@H](O)[C@H](O)[C@H]2O)cc1", "note": "[TG-028]", "values": [
      {"measurement": "HE staining and Nissl staining of brain sections, hippocampal CA3 neurons (in words)", "setting": "[1]; 3 weeks after chronic cerebral ischemia, compared with 2VO+NaCl, FIG. 10", "result": "neatly and densely arranged"},
      {"measurement": "Morris water maze positioning and navigation: escape incubation period and total distance (in words)", "setting": "[1]; TG-028 5 mg/kg, Edaravone 40 mg/kg, 3 weeks of administration, FIG. 8", "result": "comparable effect"},
      {"measurement": "Morris water maze space exploration: number of passes through the platform compared with 2VO+NaCl group", "setting": "[1]; TG-028 5 mg/kg, Edaravone 40 mg/kg, 3 weeks, FIG. 9", "result": "increases significantly"},
      {"measurement": "change in body weight compared with sham operation group (in words)", "setting": "[1]; TG-028 5 mg/kg, Edaravone 40 mg/kg, i.p. daily, after 1 week, FIG. 7", "result": "no difference in weight change between the treatment group with TG-028 and the sham operation group"},
      {"measurement": "therapeutic index LD50/ED50", "setting": "[2]; 616.59/2.61", "result": 236},
      {"measurement": "LD50", "setting": "[2]; in vivo, acute toxicity test", "result": 617, "unit": "mg/kg"},
      {"measurement": "promotion of proliferation of endothelial cells (in words)", "setting": "[3]", "result": "more potent promotion on the proliferation of endothelial cells than the direct treatment of endothelial cells with VEGF"}
    ]}
  ]
}
